Patent publication US7018987B1 (priority 1998, dated 2006)

Legend:
[1] = Solubility in water; conditions: for Solubility: mg per 1 ml water at 25° C.
[2] = test system: NCI-H460; assay type: cell-based, Human; conditions: NCI-H460, 48 hours
[3] = test system: DU-145; assay type: cell-based, Human; conditions: DU-145, 48 hours
[4] = test system: SK-N-SH; assay type: cell-based, Human; conditions: SK-N-SH, 48 hours
[5] = test system: P388 lymphocytic leukemia; assay type: cell-based, Murine; conditions: murine P-388 leukemia, 48 hours
[6] = test system: SW1736; assay type: cell-based, Human; conditions: SW1736, 48 hours
[7] = test system: FADU; assay type: cell-based, Human; conditions: FADU, 48 hours
[8] = test system: BXPC-3; assay type: cell-based, Human; conditions: BXPC-3, 48 hours
[9] = test system: eight bacteria and two fungi tested; test: Disk susceptibility testing, whole microbe panel; assay type: cell-based; conditions: for Microbe(s) inhibited: at 100 μg/disk, eight bacteria and two fungi
[10] = test system: SK-Mel-3; assay type: cell-based, Human; conditions: SK-Mel-3, 48 hours
[11] = test system: Neisseria gonorrhoeae; assay type: cell-based; conditions: disk susceptibility; for Minimum inhibitory amount per disk: Neisseria gonorrhoeae
[12] = test system: Cryptococcus neoformans; test: Disk susceptibility testing, Cryptococcus neoformans; assay type: cell-based
[13] = test system: Candida albicans; test: Disk susceptibility testing, Candida albicans; assay type: cell-based
[14] = test system: full-panel NCl screen; conditions: full-panel NCI screen, previously reported, cited from earlier work

Compound | Solubility [1] | GI50 Lung-NSC NCI-H460 [2] | GI50 Prostate DU-145 [3] | GI50 Neuroblast SK-N-SH [4] | ED50 P-388 [5] | GI50 Thyroid SW1736 [6] | GI50 Pharynx FADU [7] | GI50 Pancreas BXPC-3 [8] | Microbe(s) inhibited [9] | GI50 Melanoma SK-Mel-3 [10] | Minimum inhibitory amount per disk [11] | Minimum inhibitory concentration [12] | Minimum inhibitory concentration [13] | antimicrobial growth inhibition (in words) ([9]; disk susceptibility, bacteria and fungi tested) | solubility in water (in words) ([1]; water) | Pearson correlation coefficient, TGI-COMPARE differential cytotoxicity profile versus combretastatin A-4 1a [14] | GI50 ([14]; read-out: mean panel GI50 concentration, quadruplicate, three concentration ranges) | growth inhibition of Neisseria gonorrhoeae (in words) [11]
COc1ccc(/C=C\c2cc(OC)c(OC)c(OC)c2)cc1OP(=O)([O-])[O-].[Mg+2] [Compound 5d, Magnesium combretastatin A-4 3-O-phosphate] | 7000 µg/mL | 0.017 µg/mL | 0.01 µg/mL | 0.01 µg/mL | 0.0018 µg/mL | 6.8 µg/mL | 0.031 µg/mL | 0.43 µg/mL | * (At 100 μg/disk no inhibition of the eight bacteria and two fungi tested.) | – | – | – | – | – | – | – | – | –
Adenosine combretastatin A-4 3′-O-phosphate [Compound 5m] | – | 0.038 µg/mL | 0.036 µg/mL | 0.034 µg/mL | 0.16 µg/mL | 0.092 µg/mL | 0.032 µg/mL | 11.6 µg/mL | * (At 100 μg/disk no inhibition of the eight bacteria and two fungi tested.) | 0.35 µg/mL | – | – | – | – | – | – | – | –
Calcium combretastatin A-4 3′-O-phosphate [Compound 5a] | – | 0.001 µg/mL | 0.001 µg/mL | 0.015 µg/mL | 0.0011 µg/mL | 0.010 µg/mL | 0.001 µg/mL | 0.22 µg/mL | * (At 100 μg/disk no inhibition of the eight bacteria and two fungi tested.) | 0.0036 µg/mL | – | – | – | – | – | – | – | –
Cesium combretastatin A-4 3′-O-phosphate [Compound 5b] | >50000 µg/mL | 0.0032 µg/mL | 0.0028 µg/mL | 0.011 µg/mL | 0.001 µg/mL | 8.4 µg/mL | 0.0023 µg/mL | 0.31 µg/mL | * (At 100 μg/disk no inhibition of the eight bacteria and two fungi tested.) | 0.0043 µg/mL | – | – | – | – | – | – | – | –
Cinchonine combretastatin A-4 3-O-phosphate [Compound 5n] | 4000 µg/mL | 0.037 µg/mL | 0.030 µg/mL | – | 0.020 µg/mL | 0.089 µg/mL | 0.024 µg/mL | 1.6 µg/mL | – | – | 25–50 μg/disk | – | – | – | – | – | – | –
Glucosamine combretastatin A-4 3′-O-phosphate [Compound 5o] | 15000 µg/mL | 0.034 µg/mL | 0.026 µg/mL | 0.016 µg/mL | 0.0164 µg/mL | 0.061 µg/mL | 0.015 µg/mL | 4.5 µg/mL | * (At 100 μg/disk no inhibition of the eight bacteria and two fungi tested.) | – | – | – | – | – | – | – | – | –
Imidazole combretastatin A-4 3-O-phosphate [Compound 5g] | – | 0.004 µg/mL | 0.001 µg/mL | 0.01 µg/mL | 0.0025 µg/mL | 0.011 µg/mL | 0.01 µg/mL | 0.39 µg/mL | * (At 100 μg/disk no inhibition of the eight bacteria and two fungi tested.) | 0.01 µg/mL | – | – | – | – | – | – | – | –
Lithium combretastatin A-4 3-O-phosphate [Compound 5c] | – | 0.004 µg/mL | 0.0025 µg/mL | 0.016 µg/mL | 0.0012 µg/mL | 0.030 µg/mL | 0.003 µg/mL | 0.31 µg/mL | * (At 100 μg/disk no inhibition of the eight bacteria and two fungi tested.) | – | – | – | – | – | – | – | – | –
Morpholine combretastatin A-4 3′-O-phosphate [Compound 5h] | – | 0.003 µg/mL | 0.0024 µg/mL | 0.039 µg/mL | 0.0023 µg/mL | 0.02 µg/mL | 0.0016 µg/mL | 0.26 µg/mL | * (At 100 μg/disk no inhibition of the eight bacteria and two fungi tested.) | 0.0042 µg/mL | – | – | – | – | – | – | – | –
Piperazine combretastatin A-4 3′-O-phosphate [Compound 5i] | – | 0.0028 µg/mL | 0.0011 µg/mL | 0.021 µg/mL | 0.0016 µg/mL | 23.5 µg/mL | 0.0018 µg/mL | 0.19 µg/mL | – | 0.0036 µg/mL | 25–50 μg/disk | 25–50 μg/disk | 50–100 μg/disk | inhibitory to opportunistic fungi | – | – | – | –
Piperidine combretastatin A-4 3′-O-phosphate [Compound 5j] | 5000 µg/mL | 0.01 µg/mL | 0.01 µg/mL | 0.017 µg/mL | 0.0029 µg/mL | 0.50 µg/mL | 0.01 µg/mL | 0.30 µg/mL | * (At 100 μg/disk no inhibition of the eight bacteria and two fungi tested.) | 0.01 µg/mL | – | – | – | – | – | – | – | –
Pyrazole combretastatin A-4 3-O-phosphate [Compound 5k] | – | 0.01 µg/mL | 0.01 µg/mL | 0.014 µg/mL | 0.0023 µg/mL | 4.6 µg/mL | 0.01 µg/mL | 0.23 µg/mL | * (At 100 μg/disk no inhibition of the eight bacteria and two fungi tested.) | 0.01 µg/mL | – | – | – | – | – | – | – | –
Pyridine combretastatin A-4 3′-O-phosphate [Compound 5l] | 3000 µg/mL | 0.038 µg/mL | 0.036 µg/mL | 0.03 µg/mL | <0.001 µg/mL | 0.01 µg/mL | 0.032 µg/mL | 11.6 µg/mL | * (At 100 μg/disk no inhibition of the eight bacteria and two fungi tested.) | 0.35 µg/mL | – | – | – | – | – | – | – | –
Quinidine combretastatin A-4 3-O-phosphate [Compound 5q] | – | 0.0039 µg/mL | 0.0036 µg/mL | – | 0.0032 µg/mL | 0.11 µg/mL | 0.0033 µg/mL | 0.43 µg/mL | – | – | 6.25–12.5 μg/disk | – | – | – | – | – | – | –
Quinine combretastatin A-4 3′-O-phosphate [Compound 5p] | – | 0.0042 µg/mL | 0.0048 µg/mL | – | 0.027 µg/mL | 7.5 µg/mL | 0.006 µg/mL | 2.2 µg/mL | * (At 100 μg/disk no inhibition of the eight bacteria and two fungi tested.) | – | – | – | – | – | – | – | – | –
Sodium (E)-combretastatin A-4 3′-O-phosphate [Compound 4c] | 4000 µg/mL | 0.038 µg/mL | 0.044 µg/mL | 3.1 µg/mL | 0.02 µg/mL | 11.2 µg/mL | 0.071 µg/mL | 4.0 µg/mL | – | 0.036 µg/mL | 50–100 μg/disk | – | – | – | sparingly soluble in water | – | – | –
Sodium (Z)-combretastatin A-4 3′-O-phosphate [Compound 3d] | 20000 µg/mL | 0.0035 µg/mL | 0.0072 µg/mL | 0.0025 µg/mL | 0.00292 µg/mL | 0.0061 µg/mL | 0.0045 µg/mL | 0.23 µg/mL | – | – | 50–100 μg/disk | – | – | – | – | 0.91 | 6.89 nM | inhibited growth
Zinc combretastatin A-4 3′-O-phosphate [Compound 5f] | 11000 µg/mL | 0.0074 µg/mL | 0.0062 µg/mL | 0.024 µg/mL | 0.0343 µg/mL | 0.059 µg/mL | 0.0070 µg/mL | 1.1 µg/mL | * (At 100 μg/disk no inhibition of the eight bacteria and two fungi tested.) | 1.0 µg/mL | – | – | – | – | – | – | – | –
